In brackets after ≈: the same amount, converted by molar mass. Each block holds one compound with its values, some of them ahead of it.
Experiments:
Candida albicans [1] = assay: Antifungal activity against Candida albicans CY1002 infected in iv dosed ICR mouse administered as single dose measured on day 7; format: functional; settings: 168 h, time 7 day
Candida albicans [2] = assay: Antifungal activity against Candida albicans […] by NCCLS protocol based broth M27-A microdilution method; format: functional, organism-based
[3] = Inhibition of Candida albicans IFO1060 1,3-beta-D-glucan synthase
Chitotriosidase-1 = Chitotriosidase-1 (Homo sapiens, UniProt Q13231); assay: Inhibition of human chitinase1 incubated for 70 mins using 4MU-NAG2 as substrate by fluorescence method
Sequence of Chitotriosidase-1 (Q13231 whole entry): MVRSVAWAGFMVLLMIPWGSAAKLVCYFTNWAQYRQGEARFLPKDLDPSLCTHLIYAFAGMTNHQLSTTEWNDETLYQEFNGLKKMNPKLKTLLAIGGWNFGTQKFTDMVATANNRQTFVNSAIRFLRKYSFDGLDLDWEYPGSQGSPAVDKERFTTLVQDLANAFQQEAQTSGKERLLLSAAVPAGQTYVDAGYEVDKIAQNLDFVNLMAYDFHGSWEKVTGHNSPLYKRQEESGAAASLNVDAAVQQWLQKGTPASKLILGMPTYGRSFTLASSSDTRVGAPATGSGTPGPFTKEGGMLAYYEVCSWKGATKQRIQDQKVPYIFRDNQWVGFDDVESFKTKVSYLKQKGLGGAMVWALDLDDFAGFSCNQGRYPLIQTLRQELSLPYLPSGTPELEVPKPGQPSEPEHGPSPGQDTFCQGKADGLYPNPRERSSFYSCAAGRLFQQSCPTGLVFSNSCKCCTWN

Endochitinase A1 = Endochitinase A1 (Aspergillus fumigatus, UniProt Q873Y0); assay: Inhibition of Aspergillus fumigatus chiA1 (Arg28 to His337) expressed in Pichia pastoris incubated for 70 mins using 4MU-NAc3 as substrate by fluorescence method
Sequence of Endochitinase A1 (Q873Y0 whole entry): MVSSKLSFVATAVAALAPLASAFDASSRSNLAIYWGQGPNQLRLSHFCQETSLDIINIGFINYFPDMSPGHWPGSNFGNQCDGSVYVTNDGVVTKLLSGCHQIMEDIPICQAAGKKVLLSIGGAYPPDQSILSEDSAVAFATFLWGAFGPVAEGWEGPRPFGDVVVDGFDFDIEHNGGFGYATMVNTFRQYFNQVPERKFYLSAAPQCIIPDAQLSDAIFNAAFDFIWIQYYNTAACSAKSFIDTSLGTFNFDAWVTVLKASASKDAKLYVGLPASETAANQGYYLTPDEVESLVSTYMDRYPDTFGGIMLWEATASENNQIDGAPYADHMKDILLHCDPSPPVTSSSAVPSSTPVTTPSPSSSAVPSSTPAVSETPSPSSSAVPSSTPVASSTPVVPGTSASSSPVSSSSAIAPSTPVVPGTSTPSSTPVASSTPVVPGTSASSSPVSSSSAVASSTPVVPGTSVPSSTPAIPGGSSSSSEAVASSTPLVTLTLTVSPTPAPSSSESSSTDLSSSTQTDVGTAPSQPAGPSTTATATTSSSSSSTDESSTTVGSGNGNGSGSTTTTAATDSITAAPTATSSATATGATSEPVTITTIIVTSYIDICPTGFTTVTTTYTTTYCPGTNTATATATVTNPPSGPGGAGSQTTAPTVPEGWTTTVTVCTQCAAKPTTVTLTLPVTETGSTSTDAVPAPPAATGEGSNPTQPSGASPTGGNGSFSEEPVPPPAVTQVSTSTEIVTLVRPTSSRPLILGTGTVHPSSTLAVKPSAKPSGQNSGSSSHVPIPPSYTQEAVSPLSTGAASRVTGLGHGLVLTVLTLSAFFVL

[4] = Inhibition of Saccharomyces cerevisiae CTS1 incubated for 70 mins by fluorescence method
Candida albicans [5] = assay: Antifungal activity against Candida albicans CAI4 incubated for 24 hrs; format: functional
Chitin synthase 1 = Chitin synthase 1 (Candida albicans, UniProt P23316); assay: Inhibition of Candida albicans chitin synthase 1 expressed in Saccharomyces cerevisiae RRA400-1U cells using [3H]UDP-GlcNAc as substrate by scintillation counting method
Sequence of Chitin synthase 1 (P23316 whole entry): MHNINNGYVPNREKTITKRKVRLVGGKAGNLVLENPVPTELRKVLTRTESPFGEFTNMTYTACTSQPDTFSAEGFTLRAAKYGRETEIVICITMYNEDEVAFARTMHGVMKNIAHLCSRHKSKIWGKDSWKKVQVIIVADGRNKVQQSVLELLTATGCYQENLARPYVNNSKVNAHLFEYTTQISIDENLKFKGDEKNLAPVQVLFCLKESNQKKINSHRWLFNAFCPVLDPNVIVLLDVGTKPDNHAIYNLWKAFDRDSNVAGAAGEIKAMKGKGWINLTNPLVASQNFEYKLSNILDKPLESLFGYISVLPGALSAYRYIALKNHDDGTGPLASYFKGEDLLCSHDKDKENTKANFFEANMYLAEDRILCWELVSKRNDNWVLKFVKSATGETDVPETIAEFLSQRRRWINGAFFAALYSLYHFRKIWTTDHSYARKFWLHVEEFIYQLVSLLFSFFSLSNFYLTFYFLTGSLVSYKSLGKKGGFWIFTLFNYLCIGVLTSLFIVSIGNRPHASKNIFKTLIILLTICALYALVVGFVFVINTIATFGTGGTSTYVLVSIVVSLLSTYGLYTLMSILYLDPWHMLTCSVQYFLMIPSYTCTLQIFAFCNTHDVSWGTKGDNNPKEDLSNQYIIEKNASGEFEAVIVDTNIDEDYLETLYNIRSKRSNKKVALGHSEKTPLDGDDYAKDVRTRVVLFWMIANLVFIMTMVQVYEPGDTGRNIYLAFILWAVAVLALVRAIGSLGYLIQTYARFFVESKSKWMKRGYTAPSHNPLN

Aspergillus fumigatus [6] = assay: Antifungal activity against Aspergillus fumigatus MF5668 by CLSI method; format: functional
Nakaseomyces glabratus [7] = assay: Antifungal activity against Candida glabrata MY1381 by CLSI method; format: functional
Candida parapsilosis = assay: Antifungal activity against Candida parapsilosis ATCC22019 by CLSI method; format: functional; settings: Lodderomyces parapsilosis
Clavispora lusitaniae = assay: Antifungal activity against Candida lusitaniae MY1396 by CLSI method; format: functional
Candida albicans [8] = assay: Antifungal activity against Candida albicans Ca2323/ORF6.945 by CLSI method; format: functional
Candida albicans [9] = assay: Antifungal activity against Candida albicans Ca1055 by CLSI method; format: functional
Pichia kudriavzevii = assay: Antifungal activity against Candida krusei ATCC 6258 by CLSI method; format: functional
Debaryomyces hansenii = assay: Antifungal activity against Candida famata incubated for 24 hrs by serial dilution method; format: functional
Candida albicans [10] = assay: Antifungal activity against Candida albicans ATCC 26278 incubated for 24 hrs by serial dilution method; format: functional
Candida albicans [11] = assay: Antifungal activity against Candida albicans ATCC 10261 incubated for 24 hrs by serial dilution method; format: functional
[12] = Inhibition of Candida albicans glucosamine-6-phosphate synthase by Elson-Morgan method
Vanrija humicola = assay: Antifungal activity against Candida humicola incubated for 24 hrs by serial dilution method; format: functional
Nakaseomyces glabratus [13] = assay: Antifungal activity against Candida glabrata incubated for 24 hrs by serial dilution method; format: functional
Erythrocyte = assay: Hemolytic activity in ICR mouse red blood cells incubated for 2 hrs by visual observation; format: ADME, cell-based
[14] = Inhibition of Aspergillus fumigatus GWT1 expressed in Saccharomyces cerevisiae using UDP-GlcNAc as substrate incubated for 20 mins followed by palmitoyl-CoA addition and measured after 2 hrs by TLC-based autography
Candida albicans [15] = assay: Antifungal activity against Candida albicans CAF2-1; format: functional
[16] = Inhibition of Candida albicans GWT1 expressed in Saccharomyces cerevisiae using UDP-GlcNAc as substrate incubated for 20 mins followed by palmitoyl-CoA addition and measured after 2 hrs by TLC-based autography
Aspergillus fumigatus [17] = assay: Antifungal activity against Aspergillus fumigatus(Tsukuba); format: functional
Candida albicans [18] = assay: Antifungal activity against Candida albicans CY1002 by NCCLS-based M27-A broth microdilution method; format: functional
Aspergillus fumigatus [19] = assay: Antifungal activity against Aspergillus fumigatus CF1003 by NCCLS-based M27-A broth microdilution method; format: functional
Mucor mucedo [20] = assay: Antifungal activity against Mucor mucedo IF05776 by serial broth dilution method; format: functional
[21] = Inhibition of Mucor flavus IFO9560 chitin synthase incubated for 6 to 20 hrs by Lineweaver-Burk analysis
Mucor mucedo [22] = assay: Antifungal activity against Mucor mucedo IF07684 by serial broth dilution method; format: functional
Mucor hiemalis = assay: Antifungal activity against Mucor hiemalis IFO9400 by serial broth dilution method; format: functional
[23] = Antifungal activity against Mucor flavus IFO9560 by serial broth dilution method; format: functional
Mucor javanicus = assay: Antifungal activity against Mucor javanicus IFO4569 by serial broth dilution method; format: functional
Mucor mucedo [24] = assay: Antifungal activity against Mucor mucedo IF06750 by serial broth dilution method; format: functional
Mucor racemosus = assay: Antifungal activity against Mucor racemosus IF09255 by serial broth dilution method; format: functional
[25] = Antifungal activity against Mucor piriformis IF09416 by serial broth dilution method; format: functional

IC50 (Candida albicans [2]): 0.01 µg/mL (≈ 0.00712 µM)
IC50 [3]: 0.006 µM
SMILES: CCCCCCCCCCCCC[C@H]1OC(=O)[C@H](CCCN)NC(=O)[C@@H]([C@@H](C)O)NC(=O)CNC(=O)[C@H]([C@H](O)CCN)NC(=O)[C@H]2[C@@H](O)CCN2C(=O)[C@H]([C@@H](C)O)NC(=O)[C@@H]2C[C@@H](O)CN2C(=O)[C@H](C(C)C)NC(=O)[C@H](Cc2ccc(O)cc2)NC(=O)[C@@H](C)NC(=O)[C@H]([C@@H](C)O)NC1=O
ED50 (Candida albicans [1]): 0.04 mg/kg

IC50 (Chitotriosidase-1): > 100 µM
IC50 (Endochitinase A1): 2.6 µM
IC50 [4]: 0.5 µM
SMILES: COc1ccccc1-c1noc2nc(C)[nH]c(=O)c12

MIC50 (Candida albicans [5]): 3.3 µM (≈ 0.925 µg/mL)
Ki (Chitin synthase 1): 0.63 µM
SMILES: CC(C)(C)C#CC=CCNc1cccc2[nH]c(=O)ccc12

MIC (Aspergillus fumigatus [6]): 0.25 µg/mL (≈ 0.435 µM)
MIC (Nakaseomyces glabratus [7]): 0.5 µg/mL (≈ 0.87 µM)
MIC (Candida parapsilosis): 0.5 µg/mL (≈ 0.87 µM)
MIC (Clavispora lusitaniae): 0.25 µg/mL (≈ 0.435 µM)
MIC (Candida albicans [8]): 0.5 µg/mL (≈ 0.87 µM)
MIC (Candida albicans [9]): 0.5 µg/mL (≈ 0.87 µM)
MIC (Pichia kudriavzevii): 1 µg/mL (≈ 1.74 µM)
SMILES: C=C1[C@@H]2C[C@@H]3[C@H](C(C)C)[C@@H](OC(=O)CC(C)(O)CC(C)CC)C[C@@]3(C)C[C@H]2/C(C)=C\C[C@@H]2[C@@H](C)OC(=O)[C@H](O)[C@]12O (some centres not stated)

SMILES: COP(=O)(OC)OC[C@@H](O)[C@@H](O)[C@H](O)[C@@H](N)CO
MIC (Debaryomyces hansenii): 300 µg/mL (≈ 1040 µM)
MIC (Candida albicans [10]): 300 µg/mL (≈ 1040 µM)
MIC (Candida albicans [11]): 300 µg/mL (≈ 1040 µM)
IC50 [12]: 4750 µM
MIC (Vanrija humicola): 300 µg/mL (≈ 1040 µM)
MIC (Nakaseomyces glabratus [13]): 300 µg/mL (≈ 1040 µM)

SMILES: C[C@@H]1[C@H](O)[C@@H](C)/C=C/C=C/C=C/C=C/C=C/C=C/C=C/[C@H](O[C@@H]2O[C@H](C)[C@@H](O)[C@H](N)[C@@H]2O)C[C@@H]2O[C@](O)(C[C@@H](O)C[C@@H](O)[C@H](O)CC[C@@H](O)C[C@@H](O)CC(=O)O[C@H]1C)C[C@H](O)[C@H]2C(=O)O [AMPHOTERICIN B]
MHC (Erythrocyte): 8 µg/mL

IC50 [14]: 0.6 µM
MIC (Candida albicans [15]): 0.05 µg/mL (≈ 0.14 µM)
IC50 [16]: 0.27 µM
MIC (Aspergillus fumigatus [17]): 0.2 µg/mL (≈ 0.558 µM)
SMILES: Nc1ncccc1-c1cc(Cc2ccc(COc3ccccn3)cc2)no1 [MANOGEPIX]

MIC50 (Candida albicans [18]): 12 µg/mL (≈ 24.2 µM)
MIC50 (Aspergillus fumigatus [19]): 11 µg/mL (≈ 22.2 µM)
SMILES: C[C@@H]([C@H](N)C(=O)N[C@H](C(=O)O)[C@H]1O[C@@H](n2ccc(=O)[nH]c2=O)[C@H](O)[C@@H]1O)[C@H](O)c1ccc(O)cn1 [NIKKOMYCIN]

SMILES: C[C@@H]1C[C@H]2O[C@@H]2/C=C\C=C\C(=O)Cc2c(Cl)c(O)cc(O)c2C(=O)O1 [RADICICOL]
MIC (Mucor mucedo [20]): 0.39 µg/mL (≈ 1.07 µM)
Ki [21]: 87 µM
MIC (Mucor mucedo [22]): 0.39 µg/mL (≈ 1.07 µM)
MIC (Mucor hiemalis): 0.39 µg/mL (≈ 1.07 µM)
MIC [23]: 0.39 µg/mL (≈ 1.07 µM)
MIC (Mucor javanicus): 0.39 µg/mL (≈ 1.07 µM)
MIC (Mucor mucedo [24]): 0.39 µg/mL (≈ 1.07 µM)
MIC (Mucor racemosus): 0.39 µg/mL (≈ 1.07 µM)
MIC [25]: 0.39 µg/mL (≈ 1.07 µM)

Reference: ChEMBL document CHEMBL4715849, “Recent Progress in the Discovery of Antifungal Agents Targeting the Cell Wall” (J Med Chem, 2020)
